Some test systems named below: IGROV1 ovarian; HCC-2998 colon; OVCAR-8 ovarian; COLO 205 colon; HL-60(TB) leukemia; SK-MEL-2 melanoma; MALME-3M melanoma; HCT-116 colon.
Holding throughout (experiment): NCI anticancer screen, dose series, 48 h

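In this assay, cells in 96-well plates receive the compound at five concentrations for 48 hours. Endpoints are linearly interpolated between the surrounding concentrations. GI50 = concentration required for 50% inhibition of growth. TGI denotes the concentration required for complete inhibition of growth.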

Our source for the TGI and GI50 values is PubChem BioAssay (NCI).

As for `O=C1C2c3[nH]c4ccccc4c3[C@@H]3CCCCCCCCCCC3C2C(=O)N1c1ccccc1` (some centres not stated), the TGI is 43.6 µM in the assay with IGROV1 ovarian; > 100 µM with HCC-2998 colon; 42 µM in the assay with OVCAR-8 ovarian; 58.5 µM in the assay on COLO 205 colon; 30.2 µM in the assay with HL-60(TB) leukemia.

For the compound `C[Si](C)(C)/C=C/CCC(C=O)(CCCl)c1ccccc1` (configuration not stated), the TGI was 29.7 µM in the assay on SK-MEL-2 melanoma; > 100 µM with IGROV1 ovarian; > 100 µM in the assay on HCC-2998 colon; 87 µM in the assay with OVCAR-8 ovarian; 85.4 µM with COLO 205 colon; 52.7 µM in the assay on MALME-3M melanoma. The TGI is 32.3 µM in the assay with HCT-116 colon and > 100 µM in the assay with HL-60(TB) leukemia.

Take `CC1=NNC(=NCCN(C)C)C/C1=C/c1ccccc1Cl`: the TGI in the assay with SK-MEL-2 melanoma, with IGROV1 ovarian, in the assay with HCC-2998 colon, in the assay with OVCAR-8 ovarian, with COLO 205 colon and in the assay with MALME-3M melanoma was > 100 µM in each case. For the same compound, the TGI with HCT-116 colon is > 100 µM.

In the case of `CC(C)[C@@H]1C=C(c2ccccc2)c2ccccc2C1C(C#N)(C#N)C(C)C` (some centres not stated), the TGI in the assay with SK-MEL-2 melanoma, in the assay with IGROV1 ovarian, with HCC-2998 colon, with OVCAR-8 ovarian, in the assay on COLO 205 colon and in the assay with MALME-3M melanoma was > 100 µM in each case. The TGI with HCT-116 colon and in the assay on HL-60(TB) leukemia was > 100 µM throughout.

In the case of `Nc1nc2c(ncn2C2OC(CO)C(O)C2N)c(=O)[nH]1` (configuration not stated), the TGI with SK-MEL-2 melanoma, in the assay with IGROV1 ovarian, in the assay on HCC-2998 colon, in the assay on OVCAR-8 ovarian, in the assay with COLO 205 colon and with MALME-3M melanoma was > 100 µM throughout. For the same compound, the TGI in the assay on HCT-116 colon and with HL-60(TB) leukemia was > 100 µM each time.

For `COC(=O)C[CH](C(=O)OC)[Ge]([CH3])([CH3])[S]c1ccccc1` (configuration not stated), the GI50 is 16.2 µM in the assay on SK-MEL-2 melanoma; 0.463 µM with IGROV1 ovarian; 40.4 µM with HCC-2998 colon; 19.3 µM in the assay with OVCAR-8 ovarian; 13.9 µM with COLO 205 colon; > 100 µM in the assay on MALME-3M melanoma. In addition, the GI50 in the assay with HCT-116 colon was 27.9 µM; in the assay with HL-60(TB) leukemia, 3 µM. The TGI in the assay on SK-MEL-2 melanoma is > 100 µM; in the assay with IGROV1 ovarian it was 2.2 µM; with HCC-2998 colon, > 100 µM; with OVCAR-8 ovarian, 76.9 µM; with COLO 205 colon it was 27.1 µM; in the assay with MALME-3M melanoma, > 100 µM. Besides, the TGI worked out at 58.2 µM with HCT-116 colon and 17.5 µM in the assay with HL-60(TB) leukemia.

For the compound `CCCCCCCCCCCC(=O)OCC1OC(n2cc(F)c(=O)[nH]c2=O)C(NC(=O)OCc2ccccc2)C(O)C1O` (configuration not stated), the TGI in the assay on SK-MEL-2 melanoma is 42.5 µM; in the assay with IGROV1 ovarian, > 100 µM; in the assay with HCC-2998 colon, 32.9 µM; in the assay on OVCAR-8 ovarian, 43.7 µM; in the assay on COLO 205 colon, 39.7 µM; in the assay with MALME-3M melanoma, 47.9 µM. Further, the values for the TGI with HCT-116 colon and in the assay with HL-60(TB) leukemia were 30.3 µM and 49.7 µM, respectively.

Take `N#Cc1cccc(NC(=O)c2ccc(C(=O)O)c(C(=O)c3ccc(C(=O)O)c(C(=O)Nc4cccc(C#N)c4)c3)c2)c1`: the TGI in the assay on SK-MEL-2 melanoma, in the assay on IGROV1 ovarian, in the assay with OVCAR-8 ovarian, in the assay with COLO 205 colon, with MALME-3M melanoma and in the assay on HCT-116 colon was > 100 µM each time. Also, the TGI in the assay on HL-60(TB) leukemia is > 100 µM.

Take `Cc1cc(C)cc(-n2c3nc(=O)n(C)c(=O)c-3nc3ccccc32)c1`: the TGI with SK-MEL-2 melanoma was 63.5 µM; in the assay with IGROV1 ovarian, 94.6 µM; in the assay on HCC-2998 colon, 49.9 µM; with OVCAR-8 ovarian it was > 100 µM; with COLO 205 colon, 24.8 µM; in the assay on MALME-3M melanoma it was 30.3 µM. This compound also had a TGI with HCT-116 colon of 59.8 µM.

With `Cn1cnc([N+](=O)[O-])c1Sc1ccccn1`, the TGI in the assay with SK-MEL-2 melanoma, in the assay with IGROV1 ovarian, with HCC-2998 colon, in the assay with OVCAR-8 ovarian, with COLO 205 colon and in the assay on MALME-3M melanoma was > 100 µM in each case. Besides, in the assay with HCT-116 colon, the TGI is > 100 µM.

As for `O=C(CC(=O)N1N=C(c2ccccc2)C(N=Nc2ccc(C(=O)O)cc2)C1=O)Nc1ccc(F)cc1` (configuration not stated), the TGI is 41.8 µM in the assay with SK-MEL-2 melanoma; 80.5 µM with IGROV1 ovarian; > 100 µM in the assay with OVCAR-8 ovarian; > 100 µM with COLO 205 colon; > 100 µM in the assay on MALME-3M melanoma; 28.8 µM with HCT-116 colon. In the assay with HL-60(TB) leukemia, the TGI came out at 42.9 µM.

For the compound `CC(=O)NS(=O)(=O)c1ccc(NC(=O)COC(=O)c2cccc3c(=O)c4ccccc4[nH]c23)cc1`, the TGI in the assay on SK-MEL-2 melanoma, with IGROV1 ovarian, in the assay on OVCAR-8 ovarian, with COLO 205 colon, in the assay with MALME-3M melanoma and in the assay on HCT-116 colon was > 100 µM in each case. The TGI with HL-60(TB) leukemia was > 100 µM.

As to `c1ccc2c(CNCCCCCCNCc3cccc4ccccc34)cccc2c1`, the TGI with SK-MEL-2 melanoma stood at 3.02 µM; in the assay with IGROV1 ovarian, 30.7 µM; in the assay with OVCAR-8 ovarian it was 29 µM; with COLO 205 colon it was 3.12 µM; with MALME-3M melanoma, 3.42 µM; in the assay on HCT-116 colon, 4.35 µM. Moreover, in the assay on HL-60(TB) leukemia, the TGI worked out at 3.45 µM.
